According to patent publication US6713051B2, “Antiperspirant or deodorant compositions” (Unilever Home & Personal Care USA division of Conopco, Inc., priority 2001, dated 2004):

Experiments:
[1] = system: Human foreskin keratinocytes; experiment: Keratinocyte proliferation analysis (DNA content per well, Pico Green); type: cell-based; conditions: for keratinocyte DNA synthesis activity, statement: 1 way ANOVA, p<0.05; for DNA: 4 days
Method: (§1) Human foreskin keratinocytes (passage 3) were seeded at 4000 cells/well in 96 well plates in Keratinocyte Growth Medium (abbreviated to KGM) containing 0.03 mM calcium and grown for 3 days at 37° C. The cells were then treated with PPAR ligands in KGM containing 0.03 mM calcium for 4 days prior to harvest. Stock solutions of PPAR ligands were dissolved in dimethylsulphoxide (DMSO) and diluted in KGM before adding to the cells. […] The harvested cells were washed 3× in phosphate buffered saline (PBS) and extracted in 1% Triton X100, 50 mM (tris[hydroxymethyl]aminomethane) (Tris) pH 8.0 plus protease inhibitors pepstatin and leupeptin (100 μl/well). The extract was assayed for DNA content using the Pico Green DNA assay (Molecular Probes, Inc.).
Cultured keratinocytes were treated with cis-9-trans-11 conjugated linoleic acid (CT-CLA) for 4 days. The cells were extracted with Tris-1% Triton X100 and the DNA content per well was determine by the Pico Green assay in accordance with the above described procedure.

human PPARα = biological target: T1, human PPARα (Homo sapiens, UniProt Q07869); experiment: PPARα reporter gene assay (firefly luciferase, transiently transfected Cos-7 cells); type: cell-based; conditions: for Result (superior activity class achieved): class reached; for Pass at (lowest tested administration level at which the test material passed): pass = activation greater than oleic acid at 100 μM, commonly >1.57 times vehicle control, 24 h treatment
T1 construct: The coding region of a human PPARα cDNA was inserted downstream of the CMV promoter; expressed in transfected cells; host or cells: Cos-7 cells, transient transfection (pcDNA3.1(−)-PPARα, pRSV-RXRα, 3xPPRE-TK-luc reporter, pRL-TK)
T1 sequence (Q07869 1-468): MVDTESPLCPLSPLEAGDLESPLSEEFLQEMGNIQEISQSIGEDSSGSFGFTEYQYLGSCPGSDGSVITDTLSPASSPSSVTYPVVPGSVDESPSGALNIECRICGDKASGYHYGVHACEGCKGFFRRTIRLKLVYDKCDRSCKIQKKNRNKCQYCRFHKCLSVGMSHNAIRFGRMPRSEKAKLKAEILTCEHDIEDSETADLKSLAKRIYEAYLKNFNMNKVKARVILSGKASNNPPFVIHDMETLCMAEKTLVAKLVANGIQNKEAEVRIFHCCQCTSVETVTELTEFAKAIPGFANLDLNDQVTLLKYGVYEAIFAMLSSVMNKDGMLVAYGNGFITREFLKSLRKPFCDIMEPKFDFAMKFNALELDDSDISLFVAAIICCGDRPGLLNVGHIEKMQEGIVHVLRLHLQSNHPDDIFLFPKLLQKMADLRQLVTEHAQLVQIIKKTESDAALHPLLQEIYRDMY
T1 sequence (P19793 1-462 partner): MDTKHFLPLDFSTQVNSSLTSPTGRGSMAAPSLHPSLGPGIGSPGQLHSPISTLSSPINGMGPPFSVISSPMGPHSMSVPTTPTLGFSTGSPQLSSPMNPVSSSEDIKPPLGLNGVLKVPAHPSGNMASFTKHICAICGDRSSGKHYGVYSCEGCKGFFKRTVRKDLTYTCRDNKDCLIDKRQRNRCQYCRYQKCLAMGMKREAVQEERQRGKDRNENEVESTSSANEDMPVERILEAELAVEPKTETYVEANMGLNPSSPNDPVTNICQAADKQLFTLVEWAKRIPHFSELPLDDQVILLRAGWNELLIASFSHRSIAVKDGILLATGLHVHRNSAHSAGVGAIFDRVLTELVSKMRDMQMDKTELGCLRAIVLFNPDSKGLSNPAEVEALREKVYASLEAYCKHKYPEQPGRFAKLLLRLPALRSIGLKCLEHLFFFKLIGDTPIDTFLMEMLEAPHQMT
Text: One convenient reporter assay for determining whether a fatty acid material is PPARα activating is based upon the firefly luciferase gene.
Fatty acids were screened to identify PPAR activating fatty acids using a reporter assay.
This assay relied on ligands binding to and activating the PPARα protein, which, in turn, activated genes under the control of PPAR response elements (PPRE). In the assay, the firefly luciferase gene was cloned behind a promoter containing 3 copies of the fatty acid binding protein PPRE.
The assay was performed by transient transfection of Cos-7 cells with a mixture of four DNA plasmids. These were:
1) PPAR reporter gene construct (Modified pNF-KB-luc reporter vector (Firefly luciferase reporter vector commercially available form Clontech (NF-kB response element, TK minimal promoter, luc^+, f1 origin, pUC origin, amp^r)). A tandem repeat of 3 PPAR response elements (PPREs) corresponding to the PPRE found in the fatty acid binding protein promoter was inserted upstream of the minimal TK promoter to replace the NF-κB response element);
2) 2) Over-expressing PPARα construct (Modified pcDNA3.1(−) vector (A mammalian expression vector commercially available from Invitrogen (CMV promoter, f1 origin, SV40 origin, ColE1 origin, neo^r, amp^r)). The coding region of a human PPARα cDNA was inserted downstream of the CMV promoter of pcDNA3.1 (−)). […] The coding region of a human RXRα cDNA has been inserted downstream of the RSV promoter. (Gift of V. K. K. Chatterjee, Addenbrooke's Hospital, Cambridge)) 4) Control luciferase construct (pRL-TK Renilla luciferase reporter vector commercially available from Promega (HSV-TK promoter, T7 promoter, Rluc^+, ori, amp^r)). For the transfection, DNA was made up as a mix of PPAR reporter gene: PPARα: RXRα: control in the ratio 40:4:3:3.
Cos-7 cells were grown in Dulbecco's modified Eagle's Medium, also herein referred to as DMEM with 10% foetal calf serum, herein also referred to as FCS at 37° C., 5% CO2 to 80% confluency. Cells were then plated out in 24 well plates at 50,000 cells per well and incubated overnight in DMEM with 10% FCS at 37° C., 5% CO2. Cells were then transfected using the LipofectAMINE reagent (GibcoBRL). For each well 0.4 μg of DNA mix (in 25 μl of DMEM) was incubated with 1 μl LipofectAMINE (in 25 μl of DMEM) for 45 minutes. The mixture was then made up to 250 μl per well and added to the cells, which had been washed with 1 ml of DMEM. Cells were then incubated for 5 hours at 37° C., 5% CO2 and 250 μl DMEM with 10% SBCS (charcoal stripped bovine calf serum) added. Cells were incubated for 18 hours at 37° C., 5% CO2 before being treated with the appropriate compound/extract. Test compounds were made up as 1000× stocks (in DMSO or ethanol as appropriate) and diluted into DMEM with 10% SBCS (500 μl per well) immediately before being added to cells. Each treatment was performed in triplicate. The transfection mix was removed from the cells and replaced with the treatment mix, and incubated for 24 hours at 37° C., 5% CO2. Cells were washed with 1 ml of PBS (without calcium or magnesium) and then lysed with 100 μl per well of 1× Passive Lysis Buffer (as supplied with Promega Dual Luciferase assay kit). Lysis was allowed to continue for 15 minutes and then the lysate was assayed for Firefly and Renilla luciferase activity using the Promega Dual Luciferase assay kit. For the assay, 20 μl of lysate was taken and assayed as described in the kit instructions using a MLX microtiter™ plate luminometer (Dynex).
Firefly luciferase activity (PPAR driven) was normalised against the Renilla luciferase value for that well and the mean calculated for the three wells treated with the same agent. Activity was then expressed as fold activation over the vehicle (DMSO or ethanol) control values for that particular plate.

Transglutaminase (TGase) = experiment: Keratinocyte transglutaminase (TGase) assay; type: cell-based, human; conditions: for TGase/ng DNA: 4 days, 30 μM Ca2+, control (0 μM) 16.82
Method: as §1
The remaining cell debris attached to the 96 well plate was incubated with 70 μl/well of TGase assay buffer (50 mM Tris™ pH 8.0, 5 mM DTT, 50 mM CaCl2, 150 mM NaCl, 15 μM Texas Red Cadaverine) and incubated for 16 hours at 37° C. The plates were then washed with distilled water (×2) and the fluorescence due to cross-linked Texas Red cadaverine was determined using excitation at 590 nm and emission of 645 nm.
Cultured keratinocytes were treated with cis-9-trans-11-conjugated linoleic acid (CT-CLA) for 4 days. The cells were extracted with Tris-1% Triton X100™ and the non-extractable TGase activity associated with the cells was determined using Texas Red Cadaverine (in accordance with the methods described above).

[2] = system: Human foreskin keratinocytes; experiment: Keratinocyte cornified envelope assay; type: cell-based; conditions: for cornified envelope formation, statement: 1 way ANOVA, p<0.05; for Cornified envelopes assay: 4 days
Method: as §1
After Tris-triton extraction for TGase assay, the cells were extracted with 100 μl/well of 2% SDS, 20 mM DTT for 16 hours at 60° C. Once extracted the SDS suspension from each well was individually filtered through polyviylidenefluoride (PVDF) membrane (Immobilon-P™ Transfer Membrane, Millipore) which had been pre-blocked in Tris Buffered Saline (TBS) containing 0.5% (v/v) Tween 20, 0.5% using a Dot Blot TM Apparatus (Bio-Rad). Each sample was washed several times with TBS/Tween buffer before the membrane was removed from the apparatus, rinsed in distilled water and silver stained using silver stain kit (Bio-Rad). The stained dot blot membrane was scanned and analysed using Phoretix Array™ software.
Cultured keratinocytes were treated with pinoleic acid for 4 days. The cells were extracted with 2% SDS, 20 mM DTT and the cornified envelopes were quantified, after filtration using a PDVF membrane, by silver staining, as described above.

**Q.** How did the “keratinocyte DNA synthesis activity, statement” value ([1]; Example 10: 10 μM) turn out when `CCCCCC/C=C/C=C\CCCCCCCC(=O)O` [CLA (c9, t11), cis-9-trans-11 conjugated linoleic acid] was run?
**A.** significantly reduce

**Q.** And the DNA ([1]; Table 11: 0.1 μM, control (0 μM) 92.17)?
**A.** 81.83 ng/well

**Q.** And the DNA ([1]; Table 11: 1 μM, control (0 μM) 92.17)?
**A.** 81.33 ng/well

**Q.** And the DNA ([1]; Table 11: 10 μM, control (0 μM) 92.17)?
**A.** 59.50 ng/well

**Q.** And the “Result at (lowest administration level at which super or MS activity was achieved)” value (human PPARα)?
**A.** 25 μm

**Q.** And the “Result (superior activity class achieved)” value (human PPARα)?
**A.** super (superior activity [super] (50% higher—at least 2.25 times PPARα activation))

**Q.** And the “Pass at (lowest tested administration level at which the test material passed)” value (human PPARα)?
**A.** 10 μm

**Q.** And the “TGase/ng DNA” value (Transglutaminase (TGase); 0.1 μM)?
**A.** 18.30

**Q.** And the “TGase/ng DNA” value (Transglutaminase (TGase); 1 μM)?
**A.** 18.46

**Q.** And the “TGase/ng DNA” value (Transglutaminase (TGase); 10 μM)?
**A.** 28.07

**Q.** And the “keratinocyte TGase activity, statement” value (Transglutaminase (TGase); 1 way ANOVA, p<0.05)?
**A.** significantly increase

**Q.** What does the source list for hexadecatrienoic acid?
**A.** cornified envelope formation, statement ([2]; Example 9: 1-10 μM): significantly increase; Cornified envelopes assay ([2]; Table 10: 0.1 μM, control (0 μM) 17996): 17617 arb. Units; Cornified envelopes assay ([2]; Table 10: 1 μM, control (0 μM) 17996): 36017 arb. Units; Cornified envelopes assay ([2]; Table 10: 10 μM, control (0 μM) 17996): 40997 arb. Units; keratinocyte DNA synthesis activity, statement ([1]; Example 14: 0.1-10 μM): significantly reduce; DNA ([1]; Table 15: 0.1 μM, control (0 μM) 1.66): 0.98 ng/well; DNA ([1]; Table 15: 1 μM, control (0 μM) 1.66): 1.27 ng/well; DNA ([1]; Table 15: 10 μM, control (0 μM) 1.66): 1.13 ng/well; Result at (lowest administration level at which super or MS activity was achieved) (human PPARα): 10 μm; Result (superior activity class achieved) (human PPARα): super (superior activity [super] (50% higher—at least 2.25 times PPARα activation)); Pass at (lowest tested administration level at which the test material passed) (human PPARα): 10 μm

**Q.** Which “cornified envelope formation, statement” value ([2]; Example 8: 10 μM) does the source give for `CCCCC/C=C\C/C=C\CC/C=C\CCCC(=O)O` [Pinolenic acid, pinolenic acid] here?
**A.** significantly increase

**Q.** What about the Cornified envelopes assay ([2]; Table 9: 0.1 μM, control (0 μM) 22831) of the same compound?
**A.** 18828 arb. Units

**Q.** What about the Cornified envelopes assay ([2]; Table 9: 1 μM, control (0 μM) 22831) of the same compound?
**A.** 24860 arb. Units

**Q.** And the Cornified envelopes assay ([2]; Table 9: 10 μM, control (0 μM) 22831)?
**A.** 36579 arb. Units

**Q.** What about the “keratinocyte DNA synthesis activity, statement” value ([1]; Example 11: 10 μM) of the same compound?
**A.** significantly reduce

**Q.** And the DNA ([1]; Table 12: 0.1 μM, control (0 μM) 14.46)?
**A.** 13.41 ng/well

**Q.** What about the DNA ([1]; Table 12: 1 μM, control (0 μM) 14.46) of the same compound?
**A.** 12.95 ng/well

**Q.** And the DNA ([1]; Table 12: 10 μM, control (0 μM) 14.46)?
**A.** 12.63 ng/well

**Q.** And the “Pass at (lowest tested administration level at which the test material passed)” value (human PPARα)?
**A.** 10 μm
